From US20080287517A1, “Pyrazole Derivatives as Cb1 Modulators” (priority 2005, published 2008)

Target: T1, CB1 receptor (Homo sapiens, UniProt P21554)
T1 construct: expressed in transfected cells
Assay: [35S]-GTPγS binding assay on membranes from cells stably transfected with the CB1 gene, inhibition of CP55940 (EC80) stimulated binding
Format: biochemical
Details: concentration giving half maximal inhibition of GTPγS binding; EC80 of agonist CP55940
Description: 10 μg of membranes prepared from cells stably transfected with the CB1 gene were suspended in 200 μl of 100 mM NaCl, 5 mM MgCl2, 1 mM EDTA, 50 mM HEPES (pH 7.4), 1 mM DTT, 0.1% BSA and 100 μM GDP. To this was added an EC80 concentration of agonist (CP55940), the required concentration of test compound and 0.1 μCi [^35S]-GTPγS. The reaction was allowed to proceed at 30° C. for 45 min. Samples were then transferred on to GF/B filters using a cell harvester and washed with wash buffer (50 mM Tris (pH 7.4), 5 mM MgCl2, […]). Filters were then covered with scintillant and counted for the amount of [^35S]-GTPγS retained by the filter.
Activity is measured in the absence of all ligands (minimum activity) or in the presence of an EC80 concentration of CP55940 (maximum activity). These activities are set as 0% and 100% activity respectively. At various concentrations of novel ligand, activity is calculated as a percentage of the maximum activity and plotted. The data are fitted using the equation y=A+((B−A)/1+((C/x)UD)) and the IC50 value determined as the concentration required to give half maximal inhibition of GTPγS binding under the conditions used.

T1 sequence (P21554 whole entry): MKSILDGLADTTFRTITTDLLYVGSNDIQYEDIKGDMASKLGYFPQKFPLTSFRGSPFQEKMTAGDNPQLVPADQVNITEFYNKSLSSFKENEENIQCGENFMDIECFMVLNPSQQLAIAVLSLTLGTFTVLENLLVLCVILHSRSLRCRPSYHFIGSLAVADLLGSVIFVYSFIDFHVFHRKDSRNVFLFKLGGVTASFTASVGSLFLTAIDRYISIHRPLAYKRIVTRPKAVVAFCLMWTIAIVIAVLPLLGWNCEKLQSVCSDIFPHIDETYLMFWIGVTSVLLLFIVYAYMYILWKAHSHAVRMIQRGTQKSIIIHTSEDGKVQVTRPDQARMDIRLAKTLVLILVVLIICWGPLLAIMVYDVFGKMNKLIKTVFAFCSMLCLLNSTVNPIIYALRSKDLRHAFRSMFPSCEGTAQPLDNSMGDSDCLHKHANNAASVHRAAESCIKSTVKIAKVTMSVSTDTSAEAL

Structure (SMILES): Cc1ccc(NC(=O)c2nn(-c3ccc(Cl)cc3Cl)c(-c3ccc(OS(=O)(=O)CCC(F)(F)F)cc3)c2C)nc1 [Example 10, 3,3,3-Trifluoro-propane-1-sulfonic acid 4-[2-(2,4-dichlorophenyl)-4-methyl-5-(5-methyl-pyridin-2-ylcarbamoyl)-2H-pyrazol-3-yl]phenyl ester]
- IC50: 1.95 nM
